In brackets after ≈: the same amount, converted by molar mass.
Legend:
[1] = molecular target: T1, Carnitine O-palmitoyltransferase 1, liver isoform (Rattus norvegicus, UniProt P32198); experiment: (§1) SUPPLEMENTARY: Inhibition of Carnitine palmitoyltransferase 1, liver isoform
T1 sequence (P32198 whole entry): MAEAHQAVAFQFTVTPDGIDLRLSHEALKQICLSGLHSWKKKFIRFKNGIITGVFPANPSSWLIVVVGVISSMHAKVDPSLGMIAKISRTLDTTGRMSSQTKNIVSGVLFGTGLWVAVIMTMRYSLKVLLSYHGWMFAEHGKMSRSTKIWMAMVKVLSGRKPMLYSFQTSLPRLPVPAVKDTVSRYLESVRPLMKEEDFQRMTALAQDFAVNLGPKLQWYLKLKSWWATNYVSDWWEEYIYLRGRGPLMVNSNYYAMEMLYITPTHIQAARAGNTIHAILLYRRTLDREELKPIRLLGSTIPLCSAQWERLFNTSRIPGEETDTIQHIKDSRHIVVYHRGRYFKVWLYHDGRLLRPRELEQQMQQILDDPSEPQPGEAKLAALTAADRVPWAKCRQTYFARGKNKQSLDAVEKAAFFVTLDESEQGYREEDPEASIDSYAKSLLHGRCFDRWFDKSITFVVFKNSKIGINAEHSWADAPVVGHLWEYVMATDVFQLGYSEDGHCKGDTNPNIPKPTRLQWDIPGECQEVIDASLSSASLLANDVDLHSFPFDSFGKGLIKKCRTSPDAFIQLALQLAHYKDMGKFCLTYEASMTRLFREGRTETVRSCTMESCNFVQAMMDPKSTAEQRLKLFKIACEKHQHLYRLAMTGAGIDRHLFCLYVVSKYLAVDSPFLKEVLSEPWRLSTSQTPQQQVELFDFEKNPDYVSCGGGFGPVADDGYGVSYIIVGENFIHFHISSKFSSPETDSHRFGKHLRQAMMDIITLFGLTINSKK

[2] = molecular target: T2, Carnitine O-palmitoyltransferase 1, liver isoform (Homo sapiens, UniProt P50416); experiment: as §1
T2 sequence (P50416 whole entry): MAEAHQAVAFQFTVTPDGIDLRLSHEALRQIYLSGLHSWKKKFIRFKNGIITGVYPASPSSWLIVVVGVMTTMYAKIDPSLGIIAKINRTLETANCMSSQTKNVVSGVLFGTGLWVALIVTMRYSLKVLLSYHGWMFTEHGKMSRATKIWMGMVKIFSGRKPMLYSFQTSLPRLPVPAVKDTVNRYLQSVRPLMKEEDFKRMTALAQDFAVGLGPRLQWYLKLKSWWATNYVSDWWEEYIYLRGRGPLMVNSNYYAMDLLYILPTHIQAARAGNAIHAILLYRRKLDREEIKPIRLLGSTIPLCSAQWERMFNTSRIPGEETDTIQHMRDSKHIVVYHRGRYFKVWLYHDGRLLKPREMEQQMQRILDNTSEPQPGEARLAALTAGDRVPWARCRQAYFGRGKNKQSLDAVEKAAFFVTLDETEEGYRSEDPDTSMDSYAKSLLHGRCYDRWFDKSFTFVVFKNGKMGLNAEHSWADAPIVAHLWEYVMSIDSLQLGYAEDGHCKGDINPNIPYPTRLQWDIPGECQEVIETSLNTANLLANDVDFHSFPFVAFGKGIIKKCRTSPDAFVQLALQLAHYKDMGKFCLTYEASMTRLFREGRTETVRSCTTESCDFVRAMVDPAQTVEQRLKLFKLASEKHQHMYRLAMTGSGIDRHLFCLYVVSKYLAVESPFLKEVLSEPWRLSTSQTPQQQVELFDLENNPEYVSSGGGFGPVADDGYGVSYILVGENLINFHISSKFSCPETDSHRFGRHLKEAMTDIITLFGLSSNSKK

[3] = molecular target: T3, Carnitine O-palmitoyltransferase 2, mitochondrial (Rattus norvegicus, UniProt P18886); experiment: (§2) SUPPLEMENTARY: Inhibition of Carnitine palmitoyltransferase 2
T3 sequence (P18886 whole entry): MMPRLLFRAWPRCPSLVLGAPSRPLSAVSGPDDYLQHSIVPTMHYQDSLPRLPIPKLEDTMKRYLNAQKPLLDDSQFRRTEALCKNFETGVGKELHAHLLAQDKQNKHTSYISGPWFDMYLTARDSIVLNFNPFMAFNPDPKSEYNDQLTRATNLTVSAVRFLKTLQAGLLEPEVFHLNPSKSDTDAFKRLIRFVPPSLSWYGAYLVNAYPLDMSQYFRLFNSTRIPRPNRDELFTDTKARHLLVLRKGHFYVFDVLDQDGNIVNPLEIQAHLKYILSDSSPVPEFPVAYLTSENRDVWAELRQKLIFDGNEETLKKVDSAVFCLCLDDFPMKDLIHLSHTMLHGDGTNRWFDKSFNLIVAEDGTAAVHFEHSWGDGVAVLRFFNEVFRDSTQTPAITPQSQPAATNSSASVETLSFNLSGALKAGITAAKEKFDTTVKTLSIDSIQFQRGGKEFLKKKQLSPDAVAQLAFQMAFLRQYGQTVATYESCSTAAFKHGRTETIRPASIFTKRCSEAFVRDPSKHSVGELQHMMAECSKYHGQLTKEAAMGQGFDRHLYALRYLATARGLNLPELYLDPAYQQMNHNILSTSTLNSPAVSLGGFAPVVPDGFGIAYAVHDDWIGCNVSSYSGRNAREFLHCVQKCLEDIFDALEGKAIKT

[4] = molecular target: T4, Carnitine O-palmitoyltransferase 2, mitochondrial (Homo sapiens, UniProt P23786); experiment: as §2
T4 sequence (P23786 whole entry): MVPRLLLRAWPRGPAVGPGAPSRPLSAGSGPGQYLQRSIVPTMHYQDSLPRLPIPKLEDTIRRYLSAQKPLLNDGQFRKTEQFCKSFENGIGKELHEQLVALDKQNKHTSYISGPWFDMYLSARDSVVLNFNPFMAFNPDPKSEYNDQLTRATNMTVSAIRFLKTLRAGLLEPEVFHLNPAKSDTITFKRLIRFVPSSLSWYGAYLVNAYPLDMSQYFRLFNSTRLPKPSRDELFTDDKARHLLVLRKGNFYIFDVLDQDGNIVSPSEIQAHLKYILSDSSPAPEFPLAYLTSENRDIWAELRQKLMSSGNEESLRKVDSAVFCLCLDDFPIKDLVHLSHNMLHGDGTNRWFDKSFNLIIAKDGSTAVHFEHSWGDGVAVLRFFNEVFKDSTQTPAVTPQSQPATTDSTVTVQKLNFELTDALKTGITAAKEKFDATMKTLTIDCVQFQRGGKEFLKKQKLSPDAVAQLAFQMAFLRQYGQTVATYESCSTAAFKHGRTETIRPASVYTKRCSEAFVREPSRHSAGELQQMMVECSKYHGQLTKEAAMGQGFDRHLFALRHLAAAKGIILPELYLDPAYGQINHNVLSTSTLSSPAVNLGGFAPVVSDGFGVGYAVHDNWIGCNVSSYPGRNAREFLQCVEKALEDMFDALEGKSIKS

[5] = SUPPLEMENTARY: PAMPA permeability assay; type: physicochemical; details: read-out: Permeability
[6] = molecular target: T5, Carnitine O-palmitoyltransferase 1, muscle isoform (Homo sapiens, UniProt Q92523); experiment: SUPPLEMENTARY: Inhibition of Carnitine palmitoyltransferase 1, muscle isoform; design: species or system Muscle tissue
T5 sequence (Q92523 whole entry): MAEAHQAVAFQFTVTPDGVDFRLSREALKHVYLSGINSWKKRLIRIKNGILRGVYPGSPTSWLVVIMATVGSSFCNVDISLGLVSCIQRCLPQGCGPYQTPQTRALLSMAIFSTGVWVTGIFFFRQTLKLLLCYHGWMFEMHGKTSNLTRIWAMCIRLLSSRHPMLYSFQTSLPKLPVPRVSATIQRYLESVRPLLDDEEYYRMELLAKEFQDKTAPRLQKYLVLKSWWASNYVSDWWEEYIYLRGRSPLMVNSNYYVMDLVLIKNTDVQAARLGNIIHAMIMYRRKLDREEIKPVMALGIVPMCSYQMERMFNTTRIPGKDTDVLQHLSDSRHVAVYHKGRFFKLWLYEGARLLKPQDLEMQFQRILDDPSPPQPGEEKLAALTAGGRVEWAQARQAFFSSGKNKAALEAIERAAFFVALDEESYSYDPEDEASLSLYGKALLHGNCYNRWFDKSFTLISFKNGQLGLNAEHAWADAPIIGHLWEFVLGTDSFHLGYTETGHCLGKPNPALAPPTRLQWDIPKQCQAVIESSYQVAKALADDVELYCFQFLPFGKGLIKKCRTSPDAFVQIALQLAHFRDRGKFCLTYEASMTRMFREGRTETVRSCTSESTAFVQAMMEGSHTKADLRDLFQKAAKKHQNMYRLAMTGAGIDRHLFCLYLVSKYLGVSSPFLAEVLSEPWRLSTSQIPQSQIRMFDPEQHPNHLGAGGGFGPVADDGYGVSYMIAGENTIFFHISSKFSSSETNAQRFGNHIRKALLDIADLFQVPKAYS

[7] = SUPPLEMENTARY: Lipophilicity (log D) Determination by high-throughput shake-flask; type: physicochemical; details: octanol/water
[8] = SUPPLEMENTARY: Lyophilisation Solubility Assay (LYSA); type: physicochemical; details: read-out: Kinetic_solubility

IC50 [1]	IC50 [2]	IC50 [3]	IC50 [4]	Papp [5]	IC50 [6]	logD [7]	solubility kinetic [8]	Structure (SMILES)
102 nM	95.9 nM	> 100000 nM	> 100000 nM	1.46 ×10⁻⁶ cm/s	> 100000 nM	2.63	13 µg/mL (≈ 31.1 µM)	O=C1Cc2ccc(-c3noc([C@H]4CCCCN4C(=O)COc4ccccc4)n3)cc2N1
239 nM	164 nM	39800 nM	41800 nM	0.261 ×10⁻⁶ cm/s	> 100000 nM	1.98	8 µg/mL (≈ 18.6 µM)	O=C(COc1ccccc1)N1CCCC[C@@H]1c1nc(-c2ccc(-c3cnc[nH]3)cc2)no1
815 nM	109 nM	> 100000 nM	> 100000 nM	5.37 ×10⁻⁶ cm/s	> 100000 nM	2.42	71 µg/mL (≈ 188 µM)	Nc1cccc(-c2n[nH]c([C@H]3CCCCN3C(=O)COc3ccccc3)n2)c1
340 nM	53.7 nM	> 100000 nM	98300 nM	2.88 ×10⁻⁶ cm/s	> 100000 nM	2.61	136 µg/mL (≈ 324 µM)	CC(=O)Nc1cccc(-c2n[nH]c([C@H]3CCCCN3C(=O)COc3ccccc3)n2)c1
175 nM	146 nM	82800 nM	23900 nM	2.56 ×10⁻⁶ cm/s	> 100000 nM	2.27	103 µg/mL (≈ 226 µM)	CS(=O)(=O)Nc1cccc(-c2n[nH]c([C@H]3CCCCN3C(=O)COc3ccccc3)n2)c1
563 nM	93.1 nM	> 100000 nM	> 100000 nM	2.25 ×10⁻⁶ cm/s	> 100000 nM	2.16	161 µg/mL (≈ 397 µM)	NC(=O)c1cccc(-c2n[nH]c([C@H]3CCCCN3C(=O)COc3ccccc3)n2)c1
514 nM	156 nM	> 100000 nM	> 100000 nM	3.15 ×10⁻⁶ cm/s	628 nM	0.92	70 µg/mL (≈ 154 µM)	O=C(O)c1ccc(C(=O)Nc2nn(Cc3ccc(OC(F)F)cc3)c3ccc(F)cc23)cc1
475 nM	35.4 nM	15000 nM	69400 nM	2.43 ×10⁻⁶ cm/s	13200 nM	2.51	44 µg/mL (≈ 105 µM)	O=C(COc1ccccc1)N1CCCC[C@@H]1c1nc(-c2ccc3[nH]c(=O)[nH]c3c2)no1
70.8 nM	13.2 nM	53500 nM	42900 nM	2.61 ×10⁻⁶ cm/s	27600 nM	2.93	14.5 µg/mL (≈ 34.7 µM)	O=C1Cc2cc(-c3noc([C@H]4CCCCN4C(=O)COc4ccccc4)n3)ccc2N1
85.2 nM	226 nM	> 100000 nM	> 100000 nM	0.75 ×10⁻⁶ cm/s	45100 nM	2.38	8 µg/mL (≈ 18.1 µM)	COc1ccc(Cl)cc1S(=O)(=O)Nc1cccc(C#Cc2ccc(C(=O)O)cc2)c1
106 nM	26.1 nM	19200 nM	19100 nM	2.8 ×10⁻⁶ cm/s	> 100000 nM	3.08	9.55 µg/mL (≈ 23.7 µM)	O=C(COc1ccccc1)N1CCCC[C@@H]1c1nc(-c2ccc3[nH]cnc3c2)no1
152 nM	61 nM	> 100000 nM	> 100000 nM	0.93 ×10⁻⁶ cm/s	134 nM	2.22	1 µg/mL (≈ 1.84 µM)	COc1ccc(Cl)cc1S(=O)(=O)N1CCOc2ccc(C(=O)Nc3ccc(-c4noc(=O)[nH]4)cc3)cc21

Structure (SMILES)	IC50 [1]	IC50 [2]	IC50 [3]	IC50 [4]	Papp [5]	IC50 [6]	logD [7]	solubility kinetic [8]
O=C(Nc1ccc(-c2nnn[nH]2)cc1)c1nn(Cc2ccc(OC(F)F)cc2)c2ccc(F)cc12	2870 nM	210 nM	> 100000 nM	> 100000 nM	0.46 ×10⁻⁶ cm/s	26800 nM	> 3	1 µg/mL (≈ 2.09 µM)
CN1CCN(C(=O)COc2ccccc2)[C@@H](c2nc(-c3cccc(C(F)(F)F)c3)n[nH]2)C1	54.7 nM	37 nM	> 100000 nM	94600 nM	2.31 ×10⁻⁶ cm/s	> 100000 nM	3.19	81 µg/mL (≈ 182 µM)
